Assay results as given in paper PMC12445744, “Molecular docking to homology models of human and Trypanosoma brucei ERK8 that identified ortholog-specific inhibitors” (PLOS Neglected Tropical Diseases, 2025).
Values joined by “and” are separate entries in the source; they are usually repeats but may differ in a detail not shown here. Equal entries are not always repeated.

Target: T1, HsERK8 (Homo sapiens, UniProt Q8TD08)
T1 construct: plasmid pGEX2T expressing the full-length hERK8 coding region; made in house; host or cells: Escherichia coli Rosetta 2 (DE3)
T1 sequence (Q8TD08 1-544): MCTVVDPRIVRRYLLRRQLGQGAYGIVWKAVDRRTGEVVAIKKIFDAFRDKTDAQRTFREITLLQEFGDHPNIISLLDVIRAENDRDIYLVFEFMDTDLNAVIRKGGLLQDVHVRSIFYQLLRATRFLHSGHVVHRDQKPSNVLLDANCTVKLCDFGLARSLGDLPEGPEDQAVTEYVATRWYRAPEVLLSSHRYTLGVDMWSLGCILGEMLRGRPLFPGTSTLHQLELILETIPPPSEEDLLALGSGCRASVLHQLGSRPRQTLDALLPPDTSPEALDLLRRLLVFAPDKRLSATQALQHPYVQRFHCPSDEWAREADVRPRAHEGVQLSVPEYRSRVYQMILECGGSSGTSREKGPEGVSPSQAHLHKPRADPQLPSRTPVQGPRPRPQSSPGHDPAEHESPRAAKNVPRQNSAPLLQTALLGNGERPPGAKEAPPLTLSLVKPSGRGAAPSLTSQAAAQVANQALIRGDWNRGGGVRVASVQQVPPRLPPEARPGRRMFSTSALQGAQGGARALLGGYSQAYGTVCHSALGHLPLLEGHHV
Assay: Luciferase-based kinase inhibition assay (ATP luminescence), GST-tagged HsERK8 with MBP substrate
Assay type: biochemical
Conditions: for raw luminescence, HsERK8: replicate wells; for Luminescence Raw (Kinase-Glo): HsERK8
Description: Escherichia coli strain Rosetta 2 (DE3) (Cat# 71397, MilliporeSigma, Burlington, MA) was transformed with the plasmid pGEX2T expressing the full-length hERK8 coding region or pGSTAg expressing the full-length TbERK8 coding region. One liter of Terrific Broth media containing 100 μg/ml Ampicillin and 30 μg/ml chloramphenicol in 2 L baffled flasks was inoculated with 25 mL from an overnight culture of Rosetta 2 strains harboring either the pGEX2T-hERK8 or pGSTAg-TbERK8 plasmid. Two baffled flasks were inoculated with each overnight strain and incubated and shaken at 175 RPM in a New Brunswick Innova 44R Incubator Shaker (Fischer Scientific, Pittsburgh, PA) at 37 °C until the cultures reached an O.D.600 of 0.94. Once the cultures in the flask reached the target O.D.600, the flasks were cooled to 4 °C in an ice water bath. The cooled cultures were induced by adding isopropyl β-D-1-thiogalactopyranoside (IPTG) to a final concentration of 0.1 mM and shaken at 16 °C for 16 hours at 175 RPM in a New Brunswick Innova 44R Incubator Shaker (Fischer Scientific, Pittsburgh, PA). On the next day, the cultures were pelleted by centrifugation at 9000 xg in a JLA 10.500 rotor (Beckman Coulter; Brea, CA), and the media was decanted. The pellet was flash-frozen in liquid nitrogen and then thawed on ice. The thawed pellet was resuspended in lysis buffer (25 mM Tris, 75 mM NaCl, 0.5% TritonX-100 and 0.5% Nonidet P-40, 1 mM phenylmethanesulfonyl fluoride, 1 mM benzamidine⋅HCl) and lysed using a microfluidizer M-110P from Microfluidics (Westwood, MA). The crude lysates were clarified by centrifugation at 140,000 xg in a 45Ti rotor (Beckman Coulter, Brea, CA) for 30 min at 4°C. The clarified lysate was loaded by gravity to a 3 mL glutathione agarose resin column (Cat# G-250–10, GOLDBIO, St. Louis, MO) formed in a 1.5 × 20 cm glass chromatography column (Cat# 7371522, Bio-Rad, Hercules, CA). The column was washed with 30 mL of PBS (pH 7.4) containing 1 mM DTT. Elution buffer (50 mM Tris buffer pH 8.0 containing 10 mM reduced glutathione and 1 mM DTT was added to the washed column), and 1 mL fractions were collected by gravity and examined by SDS-PAGE stained by Coomassie dye. Peak fractions pooled from the elution were dialyzed (4x 1:500 dilutions) in kinase buffer (30 mM Tris, pH 7.4, 10 mM MgCl2, 1 mM DTT, 5% glycerol).
We performed kinase assays in buffer K (30 mM Tris pH 7.4, 10 mM MgCl2, 1 mM DTT, 5% glycerol, 50 μM ATP, and 0.1 mg/mL BSA) at 30°C for 30 min in 30 μL reactions. GST-tagged HsERK8 and TbERK8 were tested using myelin basic protein (MBP) (Cat# 13–110, Millipore, Darmstadt, Germany) as the substrate at increasing concentrations to determine the optimal activity for the assay. ATP consumption was determined by adding equal volumes of the kinase assay reagent (Promega, Cat# V5601, Madison, WI) following the manufacturer’s protocol. Luminescence was measured using the microplate reader (SpectraMax L, Molecular Devices, Sunnyvale, CA).
These compounds were screened for kinase inhibition utilizing a luciferase-based assay. Briefly, the kinases were tested using MBP as the substrate at a 14-fold molar excess in 384-well flat-bottom white plates (BRANDTECH Scientific, Cat# 781681, Essex, CT). These compounds were tested at concentrations ranging from […] to 150 nM. The kinases plus MBP substrate reactions were incubated with each inhibitor for 30 minutes at 30°C. Equal volumes of kinase assay mix Promega (Cat# V5601, Madison, WI) were added to the kinase/inhibitor reaction after 30 minutes, following the manufacturer’s protocol. ATP luminescence was measured using a microplate reader (SpectraMax L, Molecular Devices, Sunnyvale, CA). IC50 values were calculated from assays done in triplicate by fitting the data using Prism 8.1.1 (GraphPad).

C[C@]12C=CC(=O)C=C1CC[C@@H]1[C@@H]2[C@@H](O)C[C@@]2(C)[C@H]1CC[C@]2(O)C(=O)CO [Prednisolone]
IC50: 300 µM | raw luminescence, HsERK8 (0.00015 mM compound, sheet ADP_ATP_glo081724 (3)): 2318.43 RLU and 2379.5 RLU and 1359.39 RLU | raw luminescence, HsERK8 (0.00015 mM compound, sheet Kinase_glo 08142024 (2)): 11527 RLU and 11136 RLU and 8980.24 RLU | raw luminescence, HsERK8 (0.00015 mM compound, sheet Kinase_glo_080924_IFPS (2)): 3541.75 RLU and 3582.18 RLU and 3076.85 RLU | raw luminescence, HsERK8 (0.00061 mM compound, sheet ADP_ATP_glo081724 (3)): 2825.09 RLU and 2949.5 RLU and 2422.48 RLU | raw luminescence, HsERK8 (0.00061 mM compound, sheet Kinase_glo 08142024 (2)): 11527 RLU and 11503.8 RLU and 9669.24 RLU | raw luminescence, HsERK8 (0.00061 mM compound, sheet Kinase_glo_080924_IFPS (2)): 3770.83 RLU and 3829.22 RLU and 3330.64 RLU | raw luminescence, HsERK8 (0.00244 mM compound, sheet ADP_ATP_glo081724 (3)): 3720.8 RLU and 3505.92 RLU and 3191.52 RLU | raw luminescence, HsERK8 (0.00244 mM compound, sheet Kinase_glo 08142024 (2)): 11998.3 RLU and 11782.7 RLU and 9967.25 RLU | raw luminescence, HsERK8 (0.00244 mM compound, sheet Kinase_glo_080924_IFPS (2)): 4143.65 RLU and 4112.2 RLU and 3658.53 RLU | raw luminescence, HsERK8 (0.00977 mM compound, sheet ADP_ATP_glo081724 (3)): 3641.63 RLU and 3797.7 RLU and 3386.04 RLU | raw luminescence, HsERK8 (0.00977 mM compound, sheet Kinase_glo 08142024 (2)): 11620 RLU and 11670.7 RLU and 9100.71 RLU | raw luminescence, HsERK8 (0.00977 mM compound, sheet Kinase_glo_080924_IFPS (2)): 4774.74 RLU and 5053.23 RLU and 4529.94 RLU | raw luminescence, HsERK8 (0.03906 mM compound, sheet ADP_ATP_glo081724 (3)): 4824.6 RLU and 4808.77 RLU and 4191.27 RLU | raw luminescence, HsERK8 (0.03906 mM compound, sheet Kinase_glo 08142024 (2)): 13839.2 RLU and 14168.9 RLU and 11317.8 RLU | raw luminescence, HsERK8 (0.03906 mM compound, sheet Kinase_glo_080924_IFPS (2)): 7209.85 RLU and 6169.43 RLU and 7796.61 RLU | raw luminescence, HsERK8 (0.15625 mM compound, sheet ADP_ATP_glo081724 (3)): 6885.18 RLU and 7183.74 RLU and 7394.1 RLU | raw luminescence, HsERK8 (0.15625 mM compound, sheet Kinase_glo 08142024 (2)): 27241.9 RLU and 27273.6 RLU and 25587 RLU | raw luminescence, HsERK8 (0.15625 mM compound, sheet Kinase_glo_080924_IFPS (2)): 10574.2 RLU and 11234.5 RLU and 10315.9 RLU | raw luminescence, HsERK8 (0.62500 mM compound, sheet ADP_ATP_glo081724 (3)): 8751.23 RLU and 9074.68 RLU and 6998.27 RLU | raw luminescence, HsERK8 (0.62500 mM compound, sheet Kinase_glo 08142024 (2)): 32595.4 RLU and 32278.4 RLU and 37446.9 RLU | raw luminescence, HsERK8 (0.62500 mM compound, sheet Kinase_glo_080924_IFPS (2)): 11504.5 RLU and 12982.8 RLU and 12069.3 RLU | raw luminescence, HsERK8 (2.50000 mM compound, sheet ADP_ATP_glo081724 (3)): 11083.2 RLU and 11176 RLU and 9323.49 RLU | raw luminescence, HsERK8 (2.50000 mM compound, sheet Kinase_glo 08142024 (2)): 34732.1 RLU and 34810.3 RLU and 30135.3 RLU | raw luminescence, HsERK8 (2.50000 mM compound, sheet Kinase_glo_080924_IFPS (2)): 16242.2 RLU and 17136.1 RLU and 14690.3 RLU | raw luminescence, HsERK8 (10.00000 mM compound, sheet ADP_ATP_glo081724 (3)): 12580.6 RLU and 13211.7 RLU and 13399.4 RLU | raw luminescence, HsERK8 (10.00000 mM compound, sheet Kinase_glo 08142024 (2)): 37851.6 RLU and 37726.9 RLU and 37092.9 RLU | raw luminescence, HsERK8 (10.00000 mM compound, sheet Kinase_glo_080924_IFPS (2), signal = ATP left): 19715.5 RLU and 19196.1 RLU and 19703.2 RLU | Luminescence Raw (Kinase-Glo) (inhibitor 0.00976562 mM, sheet Sil_Pred3, read 3): 88068.9 and 93660.9 and 91592.3 | Luminescence Raw (Kinase-Glo) (inhibitor 0.0195312 mM, sheet Sil_Pred3, read 3): 91367.4 and 97331.9 and 97175 | Luminescence Raw (Kinase-Glo) (inhibitor 0.0390625 mM, sheet Sil_Pred3, read 3): 94347.3 and 94052.1 and 92142.9 | Luminescence Raw (Kinase-Glo) (inhibitor 0.078125 mM, sheet Sil_Pred3, read 3): 98578.2 and 105295 and 104564 | Luminescence Raw (Kinase-Glo) (inhibitor 0.15625 mM, sheet Sil_Pred3, read 3): 97978.5 and 103671 and 102378 | Luminescence Raw (Kinase-Glo) (inhibitor 0.3125 mM, sheet Sil_Pred3, read 3): 103442 and 105117 and 104861 | Luminescence Raw (Kinase-Glo) (inhibitor 0.625 mM, sheet Sil_Pred3, read 3): 118041 and 120665 and 116088 | Luminescence Raw (Kinase-Glo) (inhibitor 0.00976562, sheet Sil_Pred1, read 1): 100407 and 106564 and 102910 | Luminescence Raw (Kinase-Glo) (inhibitor 0.00976562, sheet Sil_Pred2, read 2): 90625.3 and 98037.5 and 95030.3 | Luminescence Raw (Kinase-Glo) (inhibitor 0.0195312, sheet Sil_Pred1, read 1): 105846 and 111118 and 110378 | Luminescence Raw (Kinase-Glo) (inhibitor 0.0195312, sheet Sil_Pred2, read 2): 95809.4 and 101447 and 100168 | Luminescence Raw (Kinase-Glo) (inhibitor 0.0390625, sheet Sil_Pred1, read 1): 108782 and 106859 and 106809 | Luminescence Raw (Kinase-Glo) (inhibitor 0.0390625, sheet Sil_Pred2, read 2): 97258.4 and 97956.1 and 97225.8 | Luminescence Raw (Kinase-Glo) (inhibitor 0.078125, sheet Sil_Pred1, read 1): 114996 and 120390 and 121203 | Luminescence Raw (Kinase-Glo) (inhibitor 0.078125, sheet Sil_Pred2, read 2): 101568 and 107854 and 109541 | Luminescence Raw (Kinase-Glo) (inhibitor 0.15625, sheet Sil_Pred1, read 1): 112780 and 119367 and 115572 | Luminescence Raw (Kinase-Glo) (inhibitor 0.15625, sheet Sil_Pred2, read 2): 101289 and 108375 and 104275 | Luminescence Raw (Kinase-Glo) (inhibitor 0.3125, sheet Sil_Pred1, read 1): 120905 and 121070 and 122162 | Luminescence Raw (Kinase-Glo) (inhibitor 0.3125, sheet Sil_Pred2, read 2): 107913 and 110173 and 110911 | Luminescence Raw (Kinase-Glo) (inhibitor 0.625 (mM per sheet Pred3), sheet Kinase-Glo802124_Sil_Pred1, read 1, triplicate wells): 138550 and 138736 and 130936 | Luminescence Raw (Kinase-Glo) (inhibitor 0.625, sheet Sil_Pred2, read 2): 122997 and 124612 and 121493
